According to publication PMC5520048 (Nature Communications, 2017):

How the values were obtained:
Human albumin = target: T1, Human albumin (Homo sapiens, UniProt P02768); assay: Fluorescence polarization albumin binding assay, purified human albumin
T1 construct: purchased Sigma-Aldrich A1653
Experimental: Forty-five microlitre of the dilutions were added to 15 μl of fluorescent peptide (100 nM) in black 96-well half area microtitre plates. […] The final concentration of fluorescent peptide was 25 nM in all wells. Fluorescence anisotropy was measured with an Infinite M200Pro plate reader (Tecan) using an excitation filter at 485 nm and an emission filter at 535 nm. Dissociation constant (KD) were determined by nonlinear regression analysis of anisotropy versus the total concentration of proteins [P]T using the following equation: […]
A is the experimental fluorescence anisotropy. Af and Ab are the fluorescence anisotropy for the free and the fully bound fluorescent ligand, respectively. [L]T and [P]T represent the total fluorescent ligand and protein concentration, respectively. KD is the dissociation constant for the binding equilibrium. Values were calculated with Prism 5 (GraphPad software).

[1] = target: insulin detemir (Homo sapiens) (UniProt P01308); settings: cited from earlier work
albumin = settings: cited from earlier work
[2] = applied intravenously; cited from earlier work

Chain of insulin detemir (Homo sapiens) (F8WCM5 25-53, chain 1 of 2): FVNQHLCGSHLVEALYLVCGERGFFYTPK
Chain of insulin detemir (Homo sapiens) (P01308 90-110, chain 2 of 2): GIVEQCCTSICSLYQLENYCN

## (F)-EYEKpalmEYE [tag]
Human albumin
  improvement of Kd compared to the starting peptide-palmitoyl tag: 27 fold

## albumin (from UniProt P02768)
[1]
  Kd: 4.2 µM

## insulin degludec
albumin
  higher affinity for albumin than insulin detemir: 2.4 fold

## oxytocin
[2]
  half-life: 10 to 15 min
